In US6664285B1, “Use of cell membrane penetrating indigoid bisindole derivatives” (priority 1999, dated 2003):

Columns and labels:
MCF7X (mammary) = test: Colony-forming assay; type: cell-based, human; conditions: for IC50: read-out: IC50 colony formation
OVXF1353 (ovarian) = test: Colony-forming assay; type: cell-based, human
Experimental: (§1) The anti-tumor activity of the compounds was evaluated via a colony-forming-assay as described e.g. by D. P. Berger et al. in Annals of Oncology 1, pages 333-341 (1 990), “The clonongenic assay with human tumor xenografts, evaluation, predictive values and application for drug screening”.
(§2) The experiments were conducted using various tumor cell lines, in particular mammary carcinoma (MAXF), lung adenocarcinoma (LXFA), large-cell lung carcinoma (LXFL), small-cell lung carcinoma (LXFS), colon carcinoma (CXF), melanoma (MEXF), pancreatic carcinoma (PAXF), renal carcinoma (RXF), ovarian carcinoma (OVXF) and bladder carcinoma (BXF).

PAXF736 (pancreatic) = test: Colony-forming assay; type: cell-based, human; conditions: for IC50: read-out: IC50 colony formation
MEXF514 (melanoma) = test: Colony-forming assay; type: cell-based, human; conditions: for IC50: read-out: IC50 colony formation
[1] = system: human tumor xenograft LXFL 529; test: In vivo testing in nude mice bearing subcutaneous tumor xenograft
Experimental: Compound of Examples 1, 4, 6, 8, 9 and 10 were subjected to in vivo testing in nude mice bearing subcutaneously growing human tumor xenograft LXFL 529. The indigoid bisindole derivatives were applied intraperitoneally to the animals in doses and according to the schedule as described in Table 4.
The experiments were run for 21 or 28 days. Anti-tumor activity was evaluated comparing the median tumor volume relative to control, expressed as %T/C, wherein T is the test group and C the vehicle control group. In Table 4, anti-tumor activity is given according to an activity rate scale.

1220 (renal) = test: Colony-forming assay; type: cell-based, human; conditions: renal 1220
PAXF546 (pancreatic) = test: Colony-forming assay; type: cell-based, human
HT29X (colon) = test: Colony-forming assay; type: cell-based, human; conditions: colon HT29X
[2] = system: large-cell lung carcinoma xenograft line LXFL 529 L; test: Tumor cell growth inhibition, sulforhodamine B (SRB) assay; type: cell-based, human; conditions: LXFL529L; three days incubation, serum containing medium
[3] = system: mammary carcinoma line MCF-7; test: as above; type: cell-based, human; conditions: MCF7; three days incubation, serum containing medium
Solubility = type: physicochemical
LXFL 529L cells = test: Cellular uptake into LXFL 529L cells; conditions: LXFL 529L cells
Experimental: The compounds of Examples 1, 6 and 8 and Comparative Examples 1 and 2 were investigated with respect to their ability to penetrate LXFL 529L cells having the passage numbers P23 to P39. The amounts of the substances taken up by the cells are given depending on the concentration of the substance within the incubation medium. The time of incubation was 2 hours in all of the experiments. Furthermore, the distribution of the substance which was taken up by the cells in the cytosol and the cellular organelles (particular) was estimated and is given in the intermediate column of Table 2. Tumor cell growth inhibition was determined by the sulfo-rhodamine B assay (SRB assay) according to Skehan et al., J. Natl. Cancer Institute 82, pages 1107-1112 (1990). Incubation was conducted for three days in serum containing medium. Tumor cell lines tested were a large-cell lung carcinoma xenograft line LXFL 529 L and the mammary carcinoma line MCF-7.

[4] = system: various tumor cell lines (all); test: Colony-forming assay, all tumor xenografts; type: cell-based, human
Description: The compounds according to the inventive Examples show good to excellent anti-tumor activity against various types of tumor cell lines.

OVXF899 (ovarian) = system: OVXF899 (ovarian)
Experimental: as §1, §2

CXF280 (colon) = test: Colony-forming assay; type: cell-based, human; conditions: for IC50: read-out: IC50 colony formation
[5] = system: LXFA289 (lung adenocarcinoma); test: Colony-forming assay; type: cell-based, human; conditions: for IC50: read-out: IC50 colony formation
[6] = system: LXFL529 (lung large-cell); test: Colony-forming assay; type: cell-based, human
MEXF515LX (melanoma) = test: Colony-forming assay; type: cell-based, human; conditions: for IC50: read-out: IC50 colony formation
BXF1301 (bladder) = test: Colony-forming assay; type: cell-based, human
[7] = read-out: IC50 colony formation

IC50 (MCF7X (mammary)) [µM] | IC50 (MEXF514 (melanoma)) [µM] | IC50 (CXF280 (colon)) [µM] | IC50 [5] [µM] | IC50 (MEXF515LX (melanoma)) [µM] | SMILES | IC70 colony formation (MCF7X (mammary)) [µM] | IC70 colony formation (PAXF736 (pancreatic)) [µM] | IC50 (PAXF736 (pancreatic)) [µM] | IC70 colony formation (MEXF514 (melanoma)) [µM] | IC70 colony formation (CXF280 (colon)) [µM] | IC70 colony formation [5] [µM] | IC70 colony formation (MEXF515LX (melanoma)) [µM] | further results
< 1 | 17.1 |  |  |  | O=C1Nc2ccc(Cl)cc2/C1=C1/Nc2ccccc2C1=O [Example 4, 5-Chloroindirubin] | <1.0 | 8.0 | 3.2 | 26.0 |  |  |  | activity rating ([1]; 100 mg/kg/day i.p., days 1-5): ++ (tumor stasis T/C ≦ 25%); activity rating ([1]; 300 mg/kg/day i.p., days 1-5): ++ (tumor stasis T/C ≦ 25%); tumor growth (relative tumor volume) compared to the vehicle control (in words) ([1]; LXFL 529/17, i.p., nude mice, FIG. 1): significantly inhibited the tumor growth; IC70 colony formation (1220 (renal)): 24.7 µM; IC50 (1220 (renal); [7]): 11.2 µM; IC70 colony formation (PAXF546 (pancreatic)): >30 µM; IC50 (PAXF546 (pancreatic); [7]): 4.6 µM; IC70 colony formation (HT29X (colon)): 17.3 µM; IC50 (HT29X (colon); [7]): < 1 µM
< 1 | 4.9 |  |  |  | O=C1Nc2ccc([N+](=O)[O-])cc2C1=C1Nc2ccccc2C1=O [Example 7, 5-Nitroindirubin] | 15.1 |  |  | >10.0 |  |  |  | 
 |  |  |  |  | O=C1Nc2ccc(S(=O)(=O)O)cc2C1=C1Nc2ccccc2C1=O [Comparative Example 1, Indirubin-5-sulfonic acid, reference compound] |  |  |  |  |  |  |  | IC50 [2]: > 100 µM; IC50 [3]: > 100 µM; solubility in physiological solutions (in words) (Solubility): well soluble in physiological solutions; uptake by the tumor cells (in words) (LXFL 529L cells): essentially not taken up by the cells; IC70 colony formation ([4]; tumor xenograft type (all)): >30.0 µM; IC50 ([4]; tumor xenograft type (all), read-out: IC50 colony formation): > 30 µM; anti-tumor activity (in words) ([4]; various types of tumor cell lines): does not exhibit an anti-tumor activity against any of the tumor lines
0.6 |  | 12 | 1.1 | < 0.1 | O=C1Nc2ccc(S(=O)(=O)NCCO)cc2C1=C1Nc2ccccc2C1=O [Example 13, Indirubin-5-sulfone(2-hydroxyethyl)amide] | 2.1 |  |  |  | 17.3 | 2.6 | 0.4 | IC70 colony formation (OVXF899 (ovarian)): 0.4 µM; IC50 (OVXF899 (ovarian); [7]): 0.3 µM; IC70 colony formation [6]: 5.9 µM; IC50 [6, 7]: 3.4 µM
2.4 |  | 10.7 | 0.05 | 2.6 | O=C1Nc2ccc(I)cc2/C1=C1/Nc2ccccc2/C1=N\O [Example 9, 5-Iodoindirubine-3′-oxime] | 10.4 |  |  |  | 16.3 | 0.7 | 4.9 | activity rating ([1]; 100 mg/kg/day i.p., days 1, 4, 8, 11, 15, 18, 22): − (inactive T/C > 50%); activity rating ([1]; 300 mg/kg/day i.p., days 1, 4, 8, 11, 15, 18, 22): + (tumor inhibition T/C > 25-50%); IC70 colony formation (BXF1301 (bladder)): 5.8 µM; IC50 (BXF1301 (bladder); [7]): 4 µM

SMILES | IC50 (MCF7X (mammary)) [µM] | IC50 (MEXF514 (melanoma)) [µM] | IC50 (CXF280 (colon)) [µM] | IC50 [5] [µM] | IC50 (MEXF515LX (melanoma)) [µM] | IC70 colony formation (MCF7X (mammary)) [µM] | IC70 colony formation (PAXF736 (pancreatic)) [µM] | IC50 (PAXF736 (pancreatic)) [µM] | IC70 colony formation (MEXF514 (melanoma)) [µM] | IC70 colony formation (CXF280 (colon)) [µM] | IC70 colony formation [5] [µM] | IC70 colony formation (MEXF515LX (melanoma)) [µM] | further results
O=C1Nc2ccc(F)cc2C1=C1Nc2ccccc2C1=O [Example 5, 5-Fluoroindirubin] | < 1 |  |  |  |  | <1.0 | 1.1 | < 1 |  |  |  |  | IC70 colony formation (OVXF1353 (ovarian)): 6.1 µM; IC50 (OVXF1353 (ovarian); [7]): < 1 µM
